Measured values from patent US12503455B2, “Nucleic acid-binding photoprobes and uses thereof” (Arrakis Therapeutics, Inc., priority 2017, dated 2025).

How the values were obtained:
Aptamer 21 [1] = assay: Biotin-photoaffinity probe cross-linking and streptavidin bead pull-down gel assay; assay type: binding; conditions: Aptamer 21 compared with Aptamer 21-E
Aptamer 21 [2] = assay: Capture of Aptamer 21 from a defined mixture of RNAs; assay type: binding
Protocol: A sample of folded RNA was prepared containing 1 μM each of Myc HP PA, Aptamer 21, FMN, MYC_3WJ-HP_N3G, and PreQ1 RNAs in folding buffer (20 mM TrisHCl pH 8, 100 mM KCl, 3 mM MgCl2). A 95 μL sample of this solution was added to a 5 μL aliquot of 0.2 mM ARK-670 (probe) or ARK-139 (control) in DMSO. The reaction was incubated for 30 min at 37° C., irradiated with long wave UV light (˜365 nm) for 30 min in a UV crosslinker (Fisher Scientific), and then cooled on ice. The excess probe and buffer was then removed by passing the sample through an Illustra MicroSpin G-25 spin column (GE Healthcare) according to the manufacturer's protocol.
For each treatment, a 75 μL aliquot of the crosslinked RNA was mixed with 0.75 μL of 10% Tween-20 and 0.45 μL of 0.5 M EDTA pH 8 solution. A 50 μL aliquot of MyOne Streptavidin C1 Dynabead slurry (Thermo) was captured on a magnet, washed twice with 50 μL of 1× bind/wash buffer (20 mM TrisHCl pH 7, 100 mM KCl, 0.1% Tween-20), and then resuspended in 50 μL of the crosslinked RNA sample. The bead suspension was rotated at room temperature for 60 min and then washed twice with 100 μL of 1× bind/wash solution. […]
To remove excess primer, the sample was mixed with 4.5 μL of ExoSAP-IT, incubated at 37° C. for 15 min, and then quenched with 1 μL of 0.5 M EDTA pH 8. […] The concentration was determined by absorbance at 260 nm. […]

COC(=O)C1=C(COCc2cn(CCOCCOCCNC(=O)[C@H](CCCCNC(=O)c3ccc(N=[N+]=[N-])cc3)NC(=O)CCCC[C@@H]3SC[C@@H]4NC(=O)N[C@@H]43)nn2)NC(c2ccncc2)=NC1c1ccc(F)cc1Cl (stereo partly drawn) [ARK-670]
pull-down of RNA on streptavidin beads after cross-linking (Aptamer 21 [1]): Only the Aptamer 21 RNA showed significant pull-down
RT pausing signal from probe adducts (Aptamer 21 [2]; Aptamer 21, Aptamer 21-E, or mixture of Aptamer 21 and four other RNAs): specific for Aptamer 21
enrichment of RNAs after cross-linking, avidin bead enrichment and sequencing (Aptamer 21 [2]; mixture of Aptamer 21 and four other RNAs): only Aptamer 21 was enriched
